Measurements from ChEMBL document CHEMBL3885881, “DrugMatrix”.

Species: Rattus norvegicus
Assay: DrugMatrix - Regimen: Daily Repeat
Type: toxicity, organism-based, Sprague-Dawley
Set-up: regimen Daily Repeat, gender Male, age 6-8 weeks
Details: in vivo, sc, route subcutaneous, […]; for ABSOLUTE BASOPHIL / ABSOLUTE EOSINOPHIL / ABSOLUTE LYMPHOCYTE / ABSOLUTE MONOCYTE / ABSOLUTE SEGMENTED NEUTROPHIL / BASOPHIL / EOSINOPHIL / ERYTHROCYTE COUNT / HEMATOCRIT / HEMOGLOBIN / LEUKOCYTE COUNT / LYMPHOCYTE / MEAN CORPUSCULAR HEMOGLOBIN / MEAN CORPUSCULAR HEMOGLOBIN CONCENTRATION / MEAN CORPUSCULAR VOLUME / MONOCYTE / NEUTROPHIL / NUCLEATED RED BLOOD CELLS / PLATELET COUNT: tissue Blood; for ALANINE AMINOTRANSFERASE / ALKALINE PHOSPHATASE / ASPARTATE AMINOTRANSFERASE / BLOOD UREA NITROGEN / CARBON DIOXIDE / CHLORIDE / CHOLESTEROL / CREATINE PHOSPHOKINASE / CREATININE / GLUCOSE / LACTATE DEHYDROGENASE / LIPASE / PHOSPHORUS / POTASSIUM / SODIUM / TOTAL BILIRUBIN / TOTAL PROTEIN / URIC ACID: tissue Plasma
[1] = 17 mg/kg, 120 h, dose level Low, time 5 day
[2] = 800 mg/kg, 72 h, dose level High, time 3 day
[3] = 800 mg/kg, 120 h, dose level High, time 5 day

CC(C)Cn1cnc2c(N)nc3ccccc3c21 [IMIQUIMOD]
ABSOLUTE BASOPHIL [1]: 0 CELLS/uL | ABSOLUTE EOSINOPHIL [1]: 29.67 CELLS/uL | ABSOLUTE LYMPHOCYTE [1]: 8944.33 CELLS/uL | ABSOLUTE MONOCYTE [1]: 43 CELLS/uL | ABSOLUTE SEGMENTED NEUTROPHIL [1]: 1349.67 CELLS/uL | BASOPHIL [1]: 0% | EOSINOPHIL [1]: 0.33% | ERYTHROCYTE COUNT [1]: 5.45 x10E6/uL | HEMATOCRIT [1]: 33.33% | HEMOGLOBIN [1]: 12.27 G/DL | LEUKOCYTE COUNT [1]: 10.37 x10E3/uL | LYMPHOCYTE [1]: 85.67% | MEAN CORPUSCULAR HEMOGLOBIN [1]: 22.53 pg | MEAN CORPUSCULAR HEMOGLOBIN CONCENTRATION [1]: 36.77 G/DL | MEAN CORPUSCULAR VOLUME [1]: 61.17 fL | MONOCYTE [1]: 0.33% | NEUTROPHIL [1]: 13.67% | NUCLEATED RED BLOOD CELLS [1]: 0.67 /100WBC | PLATELET COUNT [1]: 1497.33 x10E3/uL | ALANINE AMINOTRANSFERASE [1]: 53 u/L | ALKALINE PHOSPHATASE [1]: 401.33 u/L | ASPARTATE AMINOTRANSFERASE [1]: 93.33 u/L | BLOOD UREA NITROGEN [1]: 17 mg/dL | CARBON DIOXIDE [1]: 23.67 mmol/L | CHLORIDE [1]: 108.67 MEQ/L | CHOLESTEROL [1]: 52.33 mg/dL | CREATINE PHOSPHOKINASE [1]: 410.67 u/L | CREATININE [1]: 0.19 mg/dL | GLUCOSE [1]: 174.67 mg/dL | LACTATE DEHYDROGENASE [1]: 110 u/L | LIPASE [1]: 7 u/L | PHOSPHORUS [1]: 13.1 mg/dL | POTASSIUM [1]: 6.07 MEQ/L | SODIUM [1]: 146.2 MEQ/L | TOTAL BILIRUBIN [1]: 0.2 mg/dL | TOTAL PROTEIN [1]: 5.23 G/DL | URIC ACID [1]: 1.73 mg/dL | ABSOLUTE BASOPHIL [2]: 0 CELLS/uL | ABSOLUTE EOSINOPHIL [2]: 67.67 CELLS/uL | ABSOLUTE LYMPHOCYTE [2]: 7240 CELLS/uL | ABSOLUTE MONOCYTE [2]: 88 CELLS/uL | ABSOLUTE SEGMENTED NEUTROPHIL [2]: 637.67 CELLS/uL | BASOPHIL [2]: 0% | EOSINOPHIL [2]: 1% | ERYTHROCYTE COUNT [2]: 5.31 x10E6/uL | HEMATOCRIT [2]: 33.3% | HEMOGLOBIN [2]: 12.5 G/DL | LEUKOCYTE COUNT [2]: 8.03 x10E3/uL | LYMPHOCYTE [2]: 90% | MEAN CORPUSCULAR HEMOGLOBIN [2]: 23.57 pg | MEAN CORPUSCULAR HEMOGLOBIN CONCENTRATION [2]: 37.57 G/DL | MEAN CORPUSCULAR VOLUME [2]: 62.73 fL | MONOCYTE [2]: 1% | NEUTROPHIL [2]: 8% | NUCLEATED RED BLOOD CELLS [2]: 0 /100WBC | PLATELET COUNT [2]: 828 x10E3/uL | ALANINE AMINOTRANSFERASE [2]: 47 u/L | ALKALINE PHOSPHATASE [2]: 345.33 u/L | ASPARTATE AMINOTRANSFERASE [2]: 91.67 u/L | BLOOD UREA NITROGEN [2]: 15.67 mg/dL | CARBON DIOXIDE [2]: 28.67 mmol/L | CHLORIDE [2]: 107 MEQ/L | CHOLESTEROL [2]: 65 mg/dL | CREATINE PHOSPHOKINASE [2]: 419.33 u/L | CREATININE [2]: 0.27 mg/dL | GLUCOSE [2]: 147 mg/dL | LACTATE DEHYDROGENASE [2]: 130.67 u/L | LIPASE [2]: 7.5 u/L | PHOSPHORUS [2]: 10.23 mg/dL | POTASSIUM [2]: 5.87 MEQ/L | SODIUM [2]: 147.45 MEQ/L | TOTAL BILIRUBIN [2]: 0.13 mg/dL | TOTAL PROTEIN [2]: 5.17 G/DL | URIC ACID [2]: 0.73 mg/dL | ABSOLUTE BASOPHIL [3]: 0 CELLS/uL | ABSOLUTE EOSINOPHIL [3]: 301.33 CELLS/uL | ABSOLUTE LYMPHOCYTE [3]: 14418.33 CELLS/uL | ABSOLUTE MONOCYTE [3]: 118 CELLS/uL | ABSOLUTE SEGMENTED NEUTROPHIL [3]: 5662.33 CELLS/uL | BASOPHIL [3]: 0% | EOSINOPHIL [3]: 1.33% | ERYTHROCYTE COUNT [3]: 4.85 x10E6/uL | HEMATOCRIT [3]: 30.53% | HEMOGLOBIN [3]: 12.07 G/DL | LEUKOCYTE COUNT [3]: 20.5 x10E3/uL | LYMPHOCYTE [3]: 70.33% | MEAN CORPUSCULAR HEMOGLOBIN [3]: 24.9 pg | MEAN CORPUSCULAR HEMOGLOBIN CONCENTRATION [3]: 39.5 G/DL | MEAN CORPUSCULAR VOLUME [3]: 62.93 fL | MONOCYTE [3]: 0.67% | NEUTROPHIL [3]: 27.67% | NUCLEATED RED BLOOD CELLS [3]: 0.33 /100WBC | PLATELET COUNT [3]: 1467 x10E3/uL | ALANINE AMINOTRANSFERASE [3]: 44 u/L | ALKALINE PHOSPHATASE [3]: 267.67 u/L | ASPARTATE AMINOTRANSFERASE [3]: 86 u/L | BLOOD UREA NITROGEN [3]: 18 mg/dL | CARBON DIOXIDE [3]: 25 mmol/L | CHLORIDE [3]: 103.67 MEQ/L | CHOLESTEROL [3]: 58 mg/dL | CREATINE PHOSPHOKINASE [3]: 257.33 u/L | CREATININE [3]: 0.29 mg/dL | GLUCOSE [3]: 184.67 mg/dL | LACTATE DEHYDROGENASE [3]: 248 u/L | LIPASE [3]: 7.67 u/L | PHOSPHORUS [3]: 11.8 mg/dL | POTASSIUM [3]: 5.8 MEQ/L | SODIUM [3]: 142.87 MEQ/L | TOTAL BILIRUBIN [3]: 0.17 mg/dL | TOTAL PROTEIN [3]: 5.3 G/DL | URIC ACID [3]: 1.6 mg/dL
